For five compounds, Normal melting temperature and surface tension liquid-gas results are on record in the NIST ThermoML archive (doi:10.1016/j.jct.2018.12.021).

Numbers after ± are expanded uncertainties.

For data set [1] the following is noted: for Normal melting temperature: Crystal, DTA.
The nature of data set [2]: mn = molality of the nth substance listed, in mol/kg. To be noted: 303.15 K, Ring tensiometer, m2 = 0.

Take `CCCCCCCCCCCC[n+]1cscc1C.[Br-]` [N-dodecyl-4-methylthiazolium bromide]: in data set [1], the Normal melting temperature amounted to 103.16 ± 0.7 °C.
Same read-out and setting: under `CCCCCCCCCCCC[n+]1ccsc1.[Br-]` [N-dodecylthiazolium bromide] stands 67 ± 0.7 °C.
Broadly, the surface tension liquid-gas is the force per length acting along the surface. With `O` [water], in data set [1] (303.15 K, Liquid, Ring tensiometer), the surface tension liquid-gas worked out at 71.14 ± 2.3 mN/m.
Take `O` [water] + CCCCCCCCCCCC[n+]1ccsc1.[Br-]: the surface tension liquid-gas in data set [2] is given as 71.14 ± 2.3 mN/m.
With `O` [water] + CCCCCCCCCCCC[n+]1cscc1C.[Br-], the surface tension liquid-gas in data set [2] is 71.14 ± 2.3 mN/m.
